Laboratory results from paper PMC5601360 (Journal of Medicinal Chemistry, 2017).

What was measured:
[1] = biological target: T1, human KOP receptor (Homo sapiens, UniProt P41145); experiment: Competition binding assay, CHO-hKOP cell membranes, [3H]U69,593; settings: for Ki: CHO-hKOP membranes, mean ± SEM, read-out: receptor binding affinity Ki KOP; for selectivity DOP/KOP: Ki ratio DOP/KOP; for selectivity MOP/KOP: Ki ratio MOP/KOP
T1 construct: expressed in transfected cells; host or cells: CHO-hKOP cells (gift of Dr. Lawrence Toll, SRI International)
Experimental: (§1) CHO cells stably expressing recombinant human KOP, MOP, or DOP receptors (CHO-hKOP, CHO-hMOP, and CHO-hDOP cell lines) were kindly provided by Dr. Lawrence Toll (SRI International, Menlo Park, CA). The CHO-hKOP cell line was maintained in Dulbecco’s Minimal Essential Medium (DMEM) supplemented with fetal bovine serum (FBS, 10%), penicillin/streptomycin (0.1%), L-glutamine (2 mM), and geneticin (400 μg/mL). The CHO-hMOP and CHO-hDOP cell lines were maintained in DMEM/Ham’s F-12 medium supplemented with FBS (10%), penicillin/streptomycin (0.1%), L-glutamine (2 mM), and geneticin (400 μg/mL). Cell cultures were maintained at 37 °C in 5% CO2 humidified air.
(§2) Nonspecific binding was determined using 1–10 μM of the unlabeled counterpart of each radioligand. Assays were performed in 50 mM Tris-HCl buffer (pH 7.4) in a final volume of 1 mL. Cell membranes (15–20 μg) were incubated with the appropriate radioligand and various concentrations of test compound for 60 min at 25 °C. After incubation, reactions were terminated by rapid filtration through Whatman glass fiber filters. Filters were washed three times with 5 mL of ice-cold 50 mM Tris-HCl buffer (pH 7.4) using a Brandel M24R cell harvester (Gaithersburg, MD). Radioactivity retained on the filters was counted by liquid scintillation counting using a Beckman Coulter LS6500 (Beckman Coulter Inc., Fullerton, CA). All binding experiments were performed in duplicate and repeated at least three times. The inhibitory constant Ki values (in nM) were calculated from the competition binding curves by nonlinear regression analysis and the Cheng–Prusoff equation.[16]

[2] = biological target: T2, human DOP receptor (Homo sapiens, UniProt P41143); experiment: Competition binding assay, CHO-hDOP cell membranes, [3H]diprenorphine; settings: mean ± SEM, read-out: receptor binding affinity Ki DOP
T2 construct: expressed in transfected cells; host or cells: CHO-hDOP cells (gift of Dr. Lawrence Toll, SRI International)
Experimental: as §1
as §2, with “. Nonspecific” for “Nonspecific”

[3] = system: CD1 mice; settings: mouse, in vivo, sc, 7.5 mg/kg
[4] = system: acetic acid-induced writhing in CD1 mice; experiment: Acetic acid-induced writhing assay in mice after sc administration; type: in vivo; settings: for ED50: Mus musculus, 0.5 h, CD1 mice, inhibition of writhing at 30 min after drug administration, read-out: antinociceptive ED50 (95% CI); for antagonism by nor-BNI of the antinociceptive effect: nor-BNI 20 mg/kg sc 24 h before agonist (2: 5 mg/kg; 3: 1 mg/kg; 4: […] sc)
Experimental: Male CD1 mice (30–35 g, 6–8 weeks old) were obtained from the Center of Biomodels and Experimental Medicine (CBEM) (Innsbruck, Austria) or Charles River (Sulzfeld, Germany). Mice were group-housed in a temperature controlled room with a 12 h light/dark cycle and with free access to food and water. All animal studies were conducted in accordance with ethical guidelines and animal welfare standards according to Austrian regulations for animal research and were approved by the Committee of Animal Care of the Austrian Federal Ministry of Science and Research. Solutions of test compounds were prepared as 1% DMSO solutions in sterile physiological 0.9% saline and further diluted to working doses in saline solution. Test compounds or vehicle (saline) were administered by sc route in a volume of 10 μL/1 g of body weight. All doses are expressed in terms of salts. Separate groups of mice received the respective dose of compound, and individual mice were only used once for behavioral testing. Each experimental group included at least five animals.
Writhing was induced in male CD1 mice by intraperitoneal (ip) injection of a 0.6% acetic acid aqueous solution as described previously.[9a] Groups of mice were administered sc different doses of test compound or saline (control), and then 5 min prior to testing (25 min after drug or saline) each animal received an ip injection of acetic acid solution. Each mouse was placed in individual transparent Plexiglas chambers, and the number of writhes was counted during a 10 min observation period. […] For the antagonism studies, nor-BNI (20 mg/kg) was sc administered 24 h before 2 (5 mg/kg) and 17 (10 mg/kg) was sc administered 15 min before U50,488 (2 mg/kg).

[5] = biological target: T1, human KOP receptor; experiment: [35S]GTPγS binding assay using CHO-hKOP cell membranes; type: biochemical; settings: for EC50: CHO-hKOP membranes, mean ± SEM; for Emax: read-out: [35S]GTPγS KOP % stim
Experimental: The binding of [^35S]GTPγS to membranes from CHO cells stably expressing human KOP receptors (CHO-hKOP cells) was conducted according to the published procedures.[9a],[9b] CHO-hKOP cell membranes were prepared in buffer A (20 mM HEPES, 10 mM MgCl2, and 100 mM NaCl, pH 7.4). Cell membranes (8–15 μg) in buffer A were incubated with 0.05 nM [^35S]GTPγS, 10 μM GDP, and various concentrations of test compound in a final volume of 1 mL for 60 min at 25 °C. Nonspecific binding was determined using 10 μM GTPγS, and the basal binding was determined in the absence of test ligand. Samples are filtered over glass fiber filters and counted as described for binding assays. […] To determine the KOP antagonist activity, a concentration–response curve for U69,593 was obtained by assessing the [^35S]GTPγS binding to CHO-hKOP cell membranes in the presence or absence of test compound, as previously described.[9b] For each compound, the Schild analysis was conducted, utilizing a full agonist–dose response curve in the presence of at least two concentrations of the antagonist. The equilibrium dissociation constant (Ke) was calculated from the equation Ke = [a]/(DR – 1), where “a” is the concentration of antagonist and DR the virtual shift of the agonist concentration–response curve to the right in the presence of a given concentration of antagonist. All experiments were performed in duplicate and repeated at least three times.

[6] = biological target: T3, human MOP receptor (Homo sapiens, UniProt P35372); experiment: Competition binding assay, CHO-hMOP cell membranes, [3H]DAMGO; settings: mean ± SEM, read-out: receptor binding affinity Ki MOP
T3 construct: expressed in transfected cells; host or cells: CHO-hMOP cells (gift of Dr. Lawrence Toll, SRI International)
Experimental: as §1
as §2, with “. Nonspecific” for “Nonspecific”

[7] = percentage stimulation relative to the KOP full agonist U69,593

| SMILES | Ki [1] [nM] | selectivity DOP/KOP [1] | selectivity MOP/KOP [1] | Ki [2] [nM] | effect on rotarod latencies (motor behavior) [3] | ED50 ([4]; sc) [mg/kg] | EC50 [5] [nM] | Emax [5, 7] [%] | Ki [6] [nM] | also measured |
| --- | --- | --- | --- | --- | --- | --- | --- | --- | --- | --- |
| Cl.Oc1cccc(CCN(CCc2ccccc2)CC2CCCC2)c1 [Compound 3, 3-[2-[(Cyclopentylmethyl)(phenethyl)amino]ethyl]phenol Hydrochloride] | 0.017 ± 0.002 | 133471 | 16118 | 2270 ± 625 | no significant alterations in rotarod latencies | 0.49 | 3.87 ± 1.44 | ≥ 80 | 274 ± 20 | antagonism by nor-BNI of the antinociceptive effect [4]: antagonized by the KOP antagonist nor-BNI; increase in antinociceptive potency vs U50,488 ([4]; sc, ED50 comparison): about 3 fold; increase in antinociceptive potency vs compound 1 ([4]; sc, ED50 comparison): 4 fold; increase in antinociceptive potency vs compound 2 ([4]; sc, ED50 comparison): 7 fold |
| Cl.Oc1cccc(CCN(CCc2ccccc2)CC2CCCCC2)c1 [Compound 4, 3-[2-[(Cyclohexylmethyl)(phenethyl)amino]ethyl]phenol Hydrochloride] | 0.061 ± 0.027 | 35066 | 8803 | 2140 ± 346 | no significant alterations in rotarod latencies | 1.01 | 0.23 ± 0.08 | 61.9 | 537 ± 172 | antagonism by nor-BNI of the antinociceptive effect [4]: antagonized by the KOP antagonist nor-BNI; reduction in antinociceptive potency vs compound 3 ([4]; sc, ED50 comparison): about 2 fold; increase in agonist potency vs compound 1 ([5]; EC50 comparison): 16 fold; [35S]GTPγS KOP % stim [5, 7]: 61.9 ± 8.1% |
| Cl.Oc1ccc(CCN(CCc2cccc(O)c2)CC2CCC2)cc1 [Compound 14, 3-[2-[(Cyclobutylmethyl)(4-hydroxyphenethyl)amino]ethyl]phenol Hydrochloride] | 3.43 ± 0.75 | 125 | 5 | 428 ± 93 | – | 1.73 | 22.2 ± 3.6 | 76.4 ± 1.1 | 16.1 ± 4.7 | – |
| Cl.Oc1ccc(CCN(CCc2cccc(O)c2)CC2CCCCC2)cc1 [Compound 15, 3-[2-[(Cyclohexylmethyl)(4-hydroxyphenethyl)amino]ethyl]phenol Hydrochloride] | 1.85 ± 0.07 | – | – | 1640 ± 557 | – | 1.9 | 22.2 ± 7.2 | ≥ 80 | 234 ± 112 | – |
| Cl.Oc1ccc(CCN(CCc2cccc(O)c2)CC2CC2)cc1 [Compound 17, 3-[2-[(Cyclopropylmethyl)(4-hydroxyphenethyl)amino]ethyl]phenol Hydrochloride] | 3.56 ± 0.94 | >2800 | 129 | > 10000 | – | – | – | – | 460 ± 127 | agonist activity in vivo (effect on pain behavior alone) ([4]; 10 mg/kg sc, compared to control mice): did not affect pain behavior; antagonism of U50,488-induced antinociception ([4]; 17 10 mg/kg sc 15 min before U50,488 2 mg/kg sc): complete reversal of U50,488-induced analgesia; Kd ([5]; antagonist Ke at the KOP receptor against U69,593): 24.3 ± 1.5 nM; functional activity profile at the KOP receptor ([5]; in vitro, [35S]GTPγS): KOP antagonism |
| Cl.Oc1cccc(CCN(CCc2ccccc2)CC2CCC2)c1F [Compound 18, 3-[2-[(Cyclobutylmethyl)(phenethyl)amino]ethyl]-2-fluorophenol Hydrochloride] | 0.072 ± 0.027 | >138000 | 5529 | > 10000 | no significant alterations in rotarod latencies | 2.64 | 6.9 ± 3.35 | 71.4 | 398 ± 57 | – |
| Cl.Oc1cccc(CCN(CCc2cccc(O)c2F)CC2CCC2)c1 [Compound 20, 3-[2-[(Cyclobutylmethyl)(3-hydroxyphenethyl)amino]ethyl]-2-fluorophenol Hydrochloride] | 0.12 ± 0.01 | >83000 | 4642 | > 10000 | – | 2.25 | 1.49 ± 0.04 | 57.5 ± 4.4 | 557 ± 198 | increase in KOP affinity vs compound 8 ([1]; Ki comparison): about 3 fold |
| Cl.Oc1ccc(CCN(CCc2cccc(O)c2F)CC2CCC2)cc1 [Compound 21, 3-[2-[(Cyclobutylmethyl)(4-hydroxyphenethyl)amino]ethyl]-2-fluorophenol Hydrochloride] | 3.37 ± 1.54 | 389 | 155 | 1310 ± 281 | – | 2.14 | 36.7 ± 14 | 69.1 ± 1.9 | 523 ± 33 | increase in selectivity KOP vs DOP compared to compound 14 ([1]; selectivity ratio comparison): 3 fold; increase in selectivity KOP vs MOP compared to compound 14 ([1]; selectivity ratio comparison): 31 fold |
